# Source: US20060040312A1 (priority 1999, published 2006)
# Key:
# cardiac myocytes = type: cell-based, rat
# [1] = test system: histamine-contracted, isolated Guinea pig tracheal segments
# [2] = test system: primary cultures of cortex
# [3] = test system: primary cortical cultures
# [4] = molecular target: Shaker H4 potassium channel (Drosophila melanogaster, UniProt P08510); details: cited from earlier work
# F425G Shaker mutation = F425G Shaker mutation (Drosophila melanogaster, UniProt P08510, F425G); details: cited from earlier work
# [5] = test system: primary cultures of cortex; type: cell-based, rat
# Shaker H4 potassium channel, sequence (P08510 whole entry): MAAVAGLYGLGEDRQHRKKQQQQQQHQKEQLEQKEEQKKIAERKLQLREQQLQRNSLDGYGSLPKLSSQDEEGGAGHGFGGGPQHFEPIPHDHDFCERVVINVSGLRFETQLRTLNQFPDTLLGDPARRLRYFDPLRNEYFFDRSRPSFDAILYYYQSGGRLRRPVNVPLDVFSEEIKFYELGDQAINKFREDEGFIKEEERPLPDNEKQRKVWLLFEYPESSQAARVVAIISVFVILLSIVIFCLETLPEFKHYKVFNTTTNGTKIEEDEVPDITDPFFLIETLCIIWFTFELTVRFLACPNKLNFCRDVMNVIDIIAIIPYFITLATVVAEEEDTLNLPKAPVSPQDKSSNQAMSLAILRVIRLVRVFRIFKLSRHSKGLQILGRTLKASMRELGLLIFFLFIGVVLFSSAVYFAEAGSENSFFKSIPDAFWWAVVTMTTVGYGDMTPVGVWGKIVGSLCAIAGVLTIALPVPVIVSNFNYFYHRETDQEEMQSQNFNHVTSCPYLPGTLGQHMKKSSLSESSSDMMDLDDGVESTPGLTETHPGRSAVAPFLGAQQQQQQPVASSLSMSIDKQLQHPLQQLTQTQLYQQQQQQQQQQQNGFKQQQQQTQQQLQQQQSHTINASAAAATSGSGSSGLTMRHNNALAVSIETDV
# F425G Shaker mutation, sequence (P08510 whole entry F425G): as the sequence (P08510 whole entry) above, with F425G counted along it
molecule,measurement,setting,value
COc1ccc(Cl)cc1C(=O)NCCc1ccc(S(=O)(=O)NC(=O)NC2CCCCC2)cc1 [Glibenclamide],sensitivity of κ-PVIIA-evoked currents to KATP antagonist,cardiac myocytes,sensitive
same,effect of KATP channel antagonist on the κ-PVIIA response,[1],reduce effects of κ-PVIIA
same,effect of KATP antagonist on the κ-PVIIA induced hyperpolarization,[2],significant reductions
Triton [reference compound],increase in fluorescence (Enzchek protease-sensitive dye),[3],~14%
charybdotoxin [reference compound],block / inhibition of the Shaker channel,[4],inhibit
same,effect of F425G Shaker mutation on toxin affinity / sensitivity,F425G Shaker mutation,increases charybdotoxin affinity by three orders of magnitude
"Nc1ccncc1 [4-AP, 4-aminopyridine]",effect of K+ channel antagonist on the hyperpolarization seen with 100 nM κ-PVIIA,[2],without any detectable effect
"Iberiotoxin (QFTDVDCSVSKECWSVCKDLFGVDRGKCMGKKCRCYQ; UniProt P24663 1-37, looked up) [IBTX]",effect of K+ channel antagonist on the hyperpolarization seen with 100 nM κ-PVIIA,[2],without any detectable effect
CCCCNC(=O)NS(=O)(=O)c1ccc(C)cc1 [Tolbutamide],sensitivity of κ-PVIIA-evoked currents to KATP antagonist,[5],sensitive
same,effect of KATP channel antagonist on the κ-PVIIA response,[1],reduce effects of κ-PVIIA
same,effect of KATP antagonist on the κ-PVIIA induced hyperpolarization,[2],significant reductions
same,inhibition of the κ-PVIIA (100 nM) response,[2],inhibition
same,effect of KATP antagonist on κ-PVIIA protection against glutamate cytotoxicity,cortical cells,blocked
